Here are results for 11 molecules from PubChem BioAssay (NCI).

SMILES strings stand for the structures. Values joined by “and” are separate entries in the source; they are usually repeats but may differ in a detail not shown here. Equal entries are not always repeated.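 Assay format: 96-well plates, 48-hour exposure. Abbreviation: GI50, concentration required for 50% inhibition of growth. TGI is the concentration that stops growth completely.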

Experiment in all cases: growth of human tumour cells (NCI), 48 h
In experiment [1] the test system is 786-0 renal.
The subject of experiment [2] is A549 NSCLC.
Experiment [3] concerns HCC-2998 colon.
Experiment [4] relates to HL-60(TB) leukemia.
Experiment [5] has as its system K-562 leukemia.
In experiment [6] the test system is MALME-3M melanoma.
The subject of experiment [7] is MDA-MB-435.
Experiment [8] has as its system OVCAR-4 ovarian.
The test system of experiment [9] is SF-539 CNS.
The subject of experiment [10] is SK-MEL-2 melanoma.
Experiment [11] concerns UACC-257 melanoma.
Experiment [12] has as its system UO-31 renal.

On to `CC(=O)OCC1OC(OC(C)(C)CC/C=C(\C)[C@@H]2C/C=C(\C)CC/C=C(\C)CC2)C(O)C(O)C1OC(C)=O` (stereo partly specified), for which the TGI was 96.8 µM and 58.8 µM in experiment [1]; > 100 µM and 36 µM in [2]; > 100 µM and 35.9 µM in experiment [3]; 67.3 µM in experiment [4]; 61.4 µM and > 100 µM in experiment [5]; 56.4 µM and 34.5 µM in experiment [6]. For the same molecule, the TGI in [7] is > 82.5 µM and 38.8 µM; in experiment [8], > 100 µM and 32.1 µM; in experiment [9], 82.9 µM and 33.9 µM; in experiment [10] it was > 100 µM and 29.9 µM; in experiment [11] it was > 100 µM and 38.5 µM; in experiment [12], > 100 µM and 25.6 µM. The GI50 in experiment [2] is > 65.2 µM and 16.2 µM; in experiment [3], 69.8 µM and 17.9 µM; in experiment [8], > 58.7 µM and 16.2 µM; in [9], 32.6 µM and 13.5 µM; in [10], > 64.3 µM and 16.4 µM; in [11], 99.3 µM and 19.1 µM. Besides, the GI50 in [12] was 53.4 µM and 12.7 µM.

`Cc1ccc([C@@H]2[C@@H](C(=O)c3ccccn3)[C@H](c3ccc(C)cc3)C[C@](O)(c3ccccn3)[C@H]2C(=O)c2ccccn2)cc1`: the TGI was 9.15 µM in experiment [1]; greater than 44.7 µM in experiment [2]; greater than 100 µM in experiment [3]; 6.92 µM in experiment [4]; greater than 100 µM in [5]; greater than 100 µM in [6]. Further, the TGI in experiment [7], in experiment [8], in experiment [9], in [10], in experiment [11] and in experiment [12] was greater than 100 µM each time.

Turning to `COCOC1/C=C/CCCCC2=C(C)C=C(C1)O2` (stereo unspecified), the TGI in [1], in experiment [2], in experiment [3], in experiment [4], in experiment [5] and in [6] was greater than 100 µM each time. Besides, the TGI in [7], in experiment [8], in experiment [9], in experiment [10], in experiment [11] and in [12] was greater than 100 µM in each case.

Regarding `CCCCN1C(=O)CC2[C@@H]3CCc4cc(OC(C)=O)ccc4C3CC[C@]2(C)C1=O` (stereo partly specified), the TGI in [1], in experiment [2], in experiment [3], in experiment [4], in experiment [5] and in [6] was greater than 10 µM throughout. Moreover, the TGI in experiment [7], in [8], in [9], in [10], in experiment [11] and in experiment [12] was greater than 10 µM each time.

Regarding `CN1C(=O)N(c2ccccc2)C2(CCN(CC3COc4ccccc4O3)CC2)C1=O` (stereo unspecified), the TGI in experiment [1], in experiment [2], in experiment [3], in experiment [4], in experiment [5] and in experiment [6] was greater than 100 µM in each case. Besides, the TGI in [7], in [8], in experiment [9], in experiment [10], in experiment [11] and in experiment [12] was greater than 100 µM in each case.

On to `CCCCCCCCCCCCCCCCCCNc1ccn(C2OC(COP(=O)(O)OCC3OC(n4ccc(NC(=O)CCCCCCCCCCCCCCCCC)nc4=O)C(OC(C)=O)C3OC(C)=O)C(OC(C)=O)C2OC(C)=O)c(=O)n1` (stereo unspecified), for which the TGI in experiment [1], in [2], in experiment [3], in experiment [4], in experiment [5] and in experiment [6] was greater than 100 µM throughout. In addition, the TGI in experiment [7], in experiment [8], in [9], in [10], in experiment [11] and in [12] was greater than 100 µM each time.

Take `O=C(O)c1c2c(cc3c1CC1(Cc4ccccc4C1)C3)CCC2`: the TGI in experiment [1], in experiment [2], in experiment [3], in experiment [4], in [5] and in experiment [6] was greater than 100 µM throughout. Besides, the TGI in experiment [7], in experiment [8], in experiment [9], in experiment [11] and in [12] was greater than 100 µM in each case.

With `Cc1ccc(C(=O)Nc2ccc(CP(=O)(O)O)cc2CP(=O)(O)O)cc1NC(=O)c1cccc(N)c1`, the TGI in experiment [1], in experiment [2], in [3], in [4], in experiment [5] and in experiment [6] was greater than 100 µM in each case. Also, the TGI in [7], in experiment [8], in [9], in [10], in experiment [11] and in [12] was greater than 100 µM throughout.

For the molecule `C=C1CC(COc2cc(=O)oc3ccccc23)(c2ccccc2)OC1=O` (stereo unspecified), the TGI in experiment [1] amounted to 2.96 µM; in experiment [2], 25.1 µM; in experiment [3] it was 4.21 µM; in experiment [4], 6.34 µM; in experiment [5], 3.1 µM; in [6], 3.11 µM. The TGI is 11 µM in experiment [7]; 4.64 µM in experiment [8]; 7.69 µM in [9]; 2.33 µM in [10]; 6.65 µM in experiment [11]; 16 µM in [12].

For the molecule `COc1ccccc1N/C(=C\C(=O)C(=O)NC12CC3CC(CC(C3)C1)C2)c1ccccc1`, the TGI in [1], in [3], in [4], in [5], in [6] and in [7] was greater than 10 µM in each case. For the same molecule, the TGI in [8], in experiment [9], in experiment [10], in experiment [11] and in experiment [12] was greater than 10 µM each time.

With `O=C(O)c1cc2c(cc1CC(Cc1ccc3c(c1)CCC3)C(=O)O)CCC2` (stereo unspecified), the TGI in experiment [1], in experiment [2], in experiment [3], in experiment [4], in experiment [6] and in experiment [7] was greater than 100 µM throughout. For the same molecule, the TGI in experiment [8], in experiment [9], in experiment [10], in experiment [11] and in [12] was greater than 100 µM throughout.
